Data taken from ChEMBL document CHEMBL1201862, “PubChem BioAssay data set” (2004).
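Exposure lasted 48 hours, with cells grown in 96-well plates and compounds tested at five concentrations. Abbreviation: GI50, concentration required for 50% inhibition of growth.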 Calls of active or inactive are those of the source. No stated cut-off is given here; in the data, active = GI50 up to about 1.1 µM and inactive = higher.

How the values were obtained:
Assay in all cases: NCI anticancer screen, dose series, 48 h
U-251 = test system: U-251
DU-145 = test system: DU-145
RXF 393 = test system: RXF 393
SN12C = test system: SN12C
OVCAR-4 = test system: OVCAR-4
SF-268 = test system: SF-268
OVCAR-8 = test system: OVCAR-8
ACHN = test system: ACHN
HCT-15 = test system: HCT-15
RPMI-8226 = test system: RPMI-8226
HT-29 = test system: HT-29
Malme-3M = test system: Malme-3M
SW-620 = test system: SW-620
CCRF-CEM = test system: CCRF-CEM
NCI/ADR-RES = test system: NCI/ADR-RES
NCI-H226 = test system: NCI-H226
KM12 = test system: KM12
IGROV-1 = test system: IGROV-1
Hs-578T = test system: Hs-578T

| SMILES | GI50 (U-251) | GI50 (DU-145) | GI50 (RXF 393) | GI50 (SN12C) | GI50 (OVCAR-4) | GI50 (SF-268) | GI50 (OVCAR-8) | GI50 (ACHN) | GI50 (HCT-15) | GI50 (RPMI-8226) | GI50 (HT-29) | GI50 (Malme-3M) | GI50 (SW-620) | GI50 (CCRF-CEM) | GI50 (NCI/ADR-RES) | GI50 (NCI-H226) | GI50 (KM12) | GI50 (IGROV-1) | GI50 (Hs-578T) |
| --- | --- | --- | --- | --- | --- | --- | --- | --- | --- | --- | --- | --- | --- | --- | --- | --- | --- | --- | --- |
| CC(C)(NO)/C(=N\O)c1ccccc1 | > 10 µM (inactive) | > 10 µM (inactive) | > 10 µM (inactive) | > 10 µM (inactive) | > 10 µM (inactive) | > 10 µM (inactive) | > 10 µM (inactive) | > 10 µM (inactive) | > 10 µM | > 10 µM (inactive) | > 10 µM (inactive) | > 10 µM (inactive) | > 10 µM (inactive) | > 10 µM (inactive) | > 10 µM (inactive) | > 10 µM (inactive) | > 10 µM (inactive) | – | – |
| c1ccc(Cn2c(-c3ccc(-c4ccccc4)cc3)cc3ccccc32)cc1 | > 100 µM (inactive) | > 100 µM (inactive) | – | > 100 µM (inactive) | > 100 µM (inactive) | > 100 µM (inactive) | > 100 µM (inactive) | > 100 µM (inactive) | > 100 µM | > 100 µM (inactive) | > 100 µM (inactive) | 60 µM (inactive) | > 100 µM (inactive) | > 100 µM (inactive) | > 100 µM (inactive) | > 100 µM (inactive) | > 100 µM (inactive) | 67.5 µM (inactive) | 24.1 µM (inactive) |
| N#Cc1ccc(Nc2nc3[nH]cnc3c(=O)[nH]2)cc1 | > 100 µM (inactive) | > 100 µM (inactive) | – | > 100 µM (inactive) | > 100 µM (inactive) | > 100 µM (inactive) | > 100 µM (inactive) | > 100 µM (inactive) | > 100 µM | > 100 µM (inactive) | > 100 µM (inactive) | > 100 µM (inactive) | > 100 µM (inactive) | > 100 µM (inactive) | > 100 µM (inactive) | > 100 µM (inactive) | > 100 µM (inactive) | > 100 µM (inactive) | > 100 µM (inactive) |
| Cc1c(/C=N/NS(=O)(=O)c2ccccc2)no[n+]1[O-] | > 100 µM (inactive) | – | > 100 µM (inactive) | > 100 µM (inactive) | > 100 µM (inactive) | > 100 µM (inactive) | > 100 µM (inactive) | – | > 100 µM | > 100 µM (inactive) | > 100 µM (inactive) | > 100 µM (inactive) | > 100 µM (inactive) | > 100 µM (inactive) | – | – | > 100 µM (inactive) | > 100 µM (inactive) | – |
| COc1ccc2c(c1)OCC1(O)Cc3ccccc3OC21 (stereo unspecified) | > 100 µM (inactive) | > 100 µM (inactive) | – | > 100 µM (inactive) | 49.3 µM (inactive) | > 100 µM (inactive) | > 100 µM (inactive) | > 100 µM (inactive) | > 100 µM | > 100 µM (inactive) | > 100 µM (inactive) | > 100 µM (inactive) | > 100 µM (inactive) | > 100 µM (inactive) | > 100 µM (inactive) | > 100 µM (inactive) | > 100 µM (inactive) | > 100 µM (inactive) | – |
| CCCCCCCCCC1C(C)c2c([nH]c3ccccc23)C2C(=O)N(c3ccccc3)C(=O)C21 (stereo unspecified) | 13.8 µM (inactive) | – | 1.85 µM (inactive) | – | 5.9 µM (inactive) | – | 7.78 µM (inactive) | 10.8 µM (inactive) | 11 µM | 3.83 µM (inactive) | 10.8 µM (inactive) | 41.9 µM (inactive) | 35.7 µM (inactive) | 3.1 µM (inactive) | – | 12.2 µM (inactive) | 4.79 µM (inactive) | 18.8 µM (inactive) | – |
| CCc1n[nH]c(=O)n1O | > 100 µM (inactive) | > 100 µM (inactive) | – | > 100 µM (inactive) | > 100 µM (inactive) | > 100 µM (inactive) | > 100 µM (inactive) | > 100 µM (inactive) | – | – | > 100 µM (inactive) | > 100 µM (inactive) | > 100 µM (inactive) | > 100 µM (inactive) | > 100 µM (inactive) | > 100 µM (inactive) | > 100 µM (inactive) | > 100 µM (inactive) | > 100 µM (inactive) |
| COc1ccc(-n2cnc3c(NC(CCSC)C(=O)O)ncnc32)cc1 (stereo unspecified) | > 100 µM (inactive) | > 100 µM (inactive) | – | > 100 µM (inactive) | > 100 µM (inactive) | > 100 µM (inactive) | > 100 µM (inactive) | > 100 µM (inactive) | > 100 µM | > 100 µM (inactive) | > 100 µM (inactive) | – | > 100 µM (inactive) | > 100 µM (inactive) | > 100 µM (inactive) | > 100 µM (inactive) | > 100 µM (inactive) | > 100 µM (inactive) | > 100 µM (inactive) |
